In ChEMBL document CHEMBL5038596, “Design, Synthesis, In Vitro and In Vivo Characterization of Selective NKCC1 Inhibitors for the Treatment of Core Symptoms in Down Syndrome” (J Med Chem, 2021):
One block for each molecule: values may come before it. The source made the active and inactive calls. No cut-off for these calls is given here.

Key:
[1] = target: T1, Solute carrier family 12 member 2 (Homo sapiens) (UniProt P55011); test: Inhibition of NKCC1 (unknown origin) transfected in HEK293 cells expressing mbYFPQS plasmid assessed as reduction in Cl- influx at 10 uM incubated for 30 mins by fluorescence multiplate reader analysis; type: cell-based
T1 sequence (whole entry): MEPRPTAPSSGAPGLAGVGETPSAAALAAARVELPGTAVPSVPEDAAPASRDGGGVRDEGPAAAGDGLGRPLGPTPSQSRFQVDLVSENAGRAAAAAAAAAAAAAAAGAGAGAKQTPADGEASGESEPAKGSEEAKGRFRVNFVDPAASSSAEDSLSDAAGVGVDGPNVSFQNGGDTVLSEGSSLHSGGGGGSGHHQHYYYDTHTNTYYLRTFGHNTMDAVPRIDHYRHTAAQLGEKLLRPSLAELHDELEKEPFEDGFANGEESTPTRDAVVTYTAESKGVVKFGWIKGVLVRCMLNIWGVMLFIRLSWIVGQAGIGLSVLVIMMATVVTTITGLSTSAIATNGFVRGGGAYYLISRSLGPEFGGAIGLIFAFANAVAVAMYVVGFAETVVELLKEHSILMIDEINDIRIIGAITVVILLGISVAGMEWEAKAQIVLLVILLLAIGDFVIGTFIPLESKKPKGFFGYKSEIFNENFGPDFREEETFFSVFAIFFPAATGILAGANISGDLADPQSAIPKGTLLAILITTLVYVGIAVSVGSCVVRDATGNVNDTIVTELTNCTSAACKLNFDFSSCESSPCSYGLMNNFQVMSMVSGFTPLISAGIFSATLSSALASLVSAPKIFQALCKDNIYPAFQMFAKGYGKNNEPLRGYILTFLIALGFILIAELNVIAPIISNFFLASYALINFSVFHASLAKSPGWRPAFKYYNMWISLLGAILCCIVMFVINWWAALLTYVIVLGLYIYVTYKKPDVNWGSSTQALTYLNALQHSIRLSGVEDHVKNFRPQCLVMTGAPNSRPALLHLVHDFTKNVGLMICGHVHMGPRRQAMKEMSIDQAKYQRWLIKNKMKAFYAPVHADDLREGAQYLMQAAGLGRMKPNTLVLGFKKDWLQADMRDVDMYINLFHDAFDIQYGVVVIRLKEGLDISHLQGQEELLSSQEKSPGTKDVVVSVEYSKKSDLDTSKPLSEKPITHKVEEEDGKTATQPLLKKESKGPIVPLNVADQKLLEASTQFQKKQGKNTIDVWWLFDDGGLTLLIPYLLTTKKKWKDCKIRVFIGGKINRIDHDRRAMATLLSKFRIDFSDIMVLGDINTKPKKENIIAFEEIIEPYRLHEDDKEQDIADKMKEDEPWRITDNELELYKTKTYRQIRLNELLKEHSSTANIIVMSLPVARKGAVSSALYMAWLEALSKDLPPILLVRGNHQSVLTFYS

[2] = Solubility of compound in Cl- free hypotonic solution at pH 7.4 assessed as precipitation at 100 uM measured after 30 mins; type: physicochemical; settings: buffer, pH 7.4, 0.5 h
[3] = target: T1, Solute carrier family 12 member 2 (Homo sapiens); test: Inhibition of NKCC1 (unknown origin) transfected in HEK293 cells expressing mbYFPQS plasmid assessed as reduction in Cl- influx at 100 uM incubated for 30 mins by fluorescence multiplate reader analysis; type: cell-based
[4] = Solubility of compound in assay buffer at pH 7.4 assessed as precipitation at 100 uM measured after 15 mins; type: physicochemical; settings: pH 7.4, 0.25 h
Primary neuron = test: Inhibition of NKCC1 in mouse primary hippocampal neurons assessed as reduction of Ca2+ uptake at 100 uM incubated for 15 mins by Fluo-4AM dye based fluorescence analysis; type: cell-based
Mus musculus [5] = test: Diuretic activity in wild type mouse assessed as increase in urine volume at 0.6 mg/kg, ip measured after 2 hrs; type: functional, organism-based
Mus musculus [6] = test: Diuretic activity in Ts65Dn mouse assessed as increase in urine volume at 0.6 mg/kg, ip measured after 2 hrs; type: functional, organism-based
[7] = Toxicity in Ts65Dn mouse assessed as reduction in body weight at 0.6 mg/kg, ip administered daily for 3 weeks; type: organism-based; settings: in vivo, 504 h
[8] = target: T2, Solute carrier family 12 member 5 (Homo sapiens) (UniProt Q9H2X9); test: Inhibition of KCC2 (unknown origin) transfected in HEK293 cells assessed a reduction in TI influx at 10 uM incubated for 1 hr by fluorescence based analysis relative to control; type: cell-based
T2 sequence (whole entry): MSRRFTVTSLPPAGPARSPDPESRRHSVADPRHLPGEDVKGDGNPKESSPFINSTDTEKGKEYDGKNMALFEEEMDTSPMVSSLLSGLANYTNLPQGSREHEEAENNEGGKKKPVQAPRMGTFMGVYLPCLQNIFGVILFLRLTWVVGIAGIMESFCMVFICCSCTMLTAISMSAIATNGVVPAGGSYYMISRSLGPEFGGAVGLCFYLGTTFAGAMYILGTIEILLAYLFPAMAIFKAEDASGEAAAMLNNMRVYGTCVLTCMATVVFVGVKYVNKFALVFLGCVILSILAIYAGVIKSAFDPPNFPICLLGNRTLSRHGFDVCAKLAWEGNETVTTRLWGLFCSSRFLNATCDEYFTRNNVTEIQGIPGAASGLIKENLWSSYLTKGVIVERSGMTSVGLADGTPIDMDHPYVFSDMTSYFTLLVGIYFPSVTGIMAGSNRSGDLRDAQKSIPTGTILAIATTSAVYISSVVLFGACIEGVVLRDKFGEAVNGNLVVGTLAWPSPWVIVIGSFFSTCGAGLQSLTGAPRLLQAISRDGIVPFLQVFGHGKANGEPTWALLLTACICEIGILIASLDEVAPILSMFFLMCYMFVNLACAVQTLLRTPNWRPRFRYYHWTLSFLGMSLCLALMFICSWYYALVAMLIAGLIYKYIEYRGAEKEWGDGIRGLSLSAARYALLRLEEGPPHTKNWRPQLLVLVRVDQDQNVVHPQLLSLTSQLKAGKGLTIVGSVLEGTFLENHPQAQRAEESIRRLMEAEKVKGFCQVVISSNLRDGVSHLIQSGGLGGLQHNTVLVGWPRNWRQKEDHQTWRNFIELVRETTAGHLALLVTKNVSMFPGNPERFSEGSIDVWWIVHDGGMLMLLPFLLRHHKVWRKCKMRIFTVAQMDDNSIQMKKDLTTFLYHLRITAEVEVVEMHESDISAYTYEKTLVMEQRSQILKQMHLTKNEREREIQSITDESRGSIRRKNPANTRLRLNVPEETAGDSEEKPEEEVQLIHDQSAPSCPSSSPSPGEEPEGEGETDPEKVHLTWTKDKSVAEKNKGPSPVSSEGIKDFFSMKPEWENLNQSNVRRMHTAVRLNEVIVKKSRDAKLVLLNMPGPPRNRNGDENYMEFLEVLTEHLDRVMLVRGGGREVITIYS

Mus musculus [9] = test: Cognitive enhancement effect in Ts65Dn mouse assessed as restoration of short-term working memory by measuring number of correct choices at 0.6 mg/kg, ip measured after 1 to 4 weeks by T-maze test; type: functional, organism-based; settings: time 1-4 weeks
Mus musculus [10] = test: Rescue of hyperactivity in Ts65Dn mouse assessed as assessed as reduction in total distance travelled at 0.6 mg/kg, ip measured after 1 to 4 weeks by open field test; type: functional, organism-based; settings: time 1-4 weeks
Mus musculus [11] = test: Cognitive enhancement effect in Ts65Dn mouse assessed as rescue of poor novel-discrimination ability by measuring increase in time spent in exploring novel object at 0.6 mg/kg, ip measured after 1 to 4 weeks by novel object recognition test; type: functional, organism-based; settings: time 1-4 weeks
Mus musculus [12] = test: Cognitive enhancement effect in Ts65Dn mouse assessed as rescue of electric shock induced freezing response at 0.6 mg/kg, ip measured after 1 to 4 weeks by contextual fear-conditioning test; type: functional, organism-based; settings: time 1-4 weeks
[13] = Toxicity in mouse assessed as reduction in body weight at 0.6 mg/kg, ip administered daily for 3 weeks; type: organism-based; settings: in vivo, 504 h

SMILES: CC(C)(C)CCNc1ccc(C(=O)O)cc1S(N)(=O)=O
inhibition [1]: inactive

SMILES: CCCCNc1ccc(C(=O)O)cc1S(N)(=O)=O
inhibition [1]: inactive

SMILES: CN(C)S(=O)(=O)c1cc(C(=O)O)ccc1NCCCC(F)(F)F
inhibition [1]: inactive

SMILES: CCCCCCNc1ccc(C(=O)O)cc1S(=O)(=O)NC
inhibition [1]: inactive
inhibition [3]: inactive

SMILES: CCCCCCNc1ccc([N+](=O)[O-])cc1S(=O)(=O)N(C)C
inhibition [1]: inactive

SMILES: O=C(O)c1ccc(NCCCCCCCC(F)(F)F)c(S(=O)(=O)N2CCCCC2)c1
solubility [4]: Insoluble
inhibition (Primary neuron): inactive

SMILES: CCCCNc1cc(C(=O)O)cc(S(N)(=O)=O)c1Oc1ccccc1
Activity (Mus musculus [5]): Active
Activity (Mus musculus [6]): Active

SMILES: CN(C)S(=O)(=O)c1cc(C(=O)O)c(OC2CCCC2)cc1NCCCCCCCC(F)(F)F
solubility [4]: Insoluble
inhibition (Primary neuron): inactive

SMILES: CCCCNc1ccc([N+](=O)[O-])cc1S(N)(=O)=O
inhibition [1]: inactive

SMILES: O=C(O)c1ccc(NCCCCCCCC(F)(F)F)c(S(=O)(=O)NC2CCCC2)c1
solubility [4]: Insoluble
inhibition (Primary neuron): inactive

SMILES: CCCCCCCCNc1ccc(C(=O)O)cc1S(=O)(=O)N(C)C
inhibition [1]: inactive

SMILES: CCCCCCNc1ccc(C(=O)O)cc1S(N)(=O)=O
inhibition [1]: inactive

SMILES: O=C(O)c1ccc(NCCCCCCCC(F)(F)F)c(S(=O)(=O)NC2CCCCC2)c1
solubility [4]: Insoluble
inhibition (Primary neuron): inactive

SMILES: CCCCNc1ccc([N+](=O)[O-])cc1S(=O)(=O)NC
inhibition [1]: inactive

More lines, main results first:

inhibition [1]: inactive
solubility [2]: Insoluble
SMILES: CCCCNc1ccc([N+](=O)[O-])cc1S(=O)(=O)N(C)C

inhibition [1]: inactive
inhibition [3]: inactive
SMILES: CN(C)S(=O)(=O)c1cc(C(=O)O)ccc1NCCC(C)(C)C

inhibition [1]: inactive
inhibition [3]: inactive
SMILES: CCCCCCCCNc1ccc([N+](=O)[O-])cc1S(=O)(=O)N(C)C

inhibition [1]: inactive
SMILES: COCCCCNc1ccc(C(=O)O)cc1S(=O)(=O)N(C)C

inhibition [1]: inactive
inhibition [3]: inactive
SMILES: COCCCCCCNc1ccc(C(=O)O)cc1S(=O)(=O)N(C)C

inhibition [1]: inactive
SMILES: CC(C)(C)CCNc1ccc([N+](=O)[O-])cc1S(N)(=O)=O

inhibition [1]: inactive
inhibition [3]: inactive
SMILES: CCCCCCCCNc1ccc([N+](=O)[O-])cc1S(=O)(=O)NC

inhibition [1]: inactive
SMILES: CCCCCCNc1ccc(C(=O)O)cc1S(=O)(=O)N(C)C

inhibition [1]: inactive
SMILES: CN(C)S(=O)(=O)c1cc(C(=O)O)ccc1NCCCCCC(F)(F)F

inhibition [8]: inactive
inhibition [1]: inactive
SMILES: CN(C)S(=O)(=O)c1cc(C(=O)O)c(O)cc1NCCCCCCCC(F)(F)F
Activity [7]: Non-Toxic
Activity (Mus musculus [5]): inactive
Activity (Mus musculus [9]): Active
Activity (Mus musculus [10]): Active
Activity (Mus musculus [11]): Active
Activity (Mus musculus [12]): Active
Activity (Mus musculus [6]): inactive
Activity [13]: Non-Toxic

inhibition [1]: inactive
SMILES: CCCCCCCCNc1ccc(C(=O)O)cc1S(N)(=O)=O

inhibition [1]: inactive
SMILES: CNS(=O)(=O)c1cc(C(=O)O)ccc1NCCC(C)(C)C

inhibition [1]: inactive
SMILES: CCCCCCNc1ccc([N+](=O)[O-])cc1S(N)(=O)=O

solubility [2]: Insoluble
SMILES: CN(C)S(=O)(=O)c1cc([N+](=O)[O-])ccc1NCCC(C)(C)C
